Results taken from US20230011869A1 (Hoffmann-La Roche Inc., priority 2018, published 2023).
Where a name gives a salt, the structure may show the parent alone.

These compounds were tested on Acinetobacter baumannii ATCC17978 (assay: Antimicrobial susceptibility testing: 90% growth inhibitory concentration (IC90) determination, Iso-Sensitest broth). Conditions: 90% growth inhibitory concentration, Acinetobacter baumannii ATCC17978, Iso-Sensitest broth, OD 600 nm over 16 h; read-out: ATCC17978 IC90.
Format: cell-based
Method in brief: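 A. baumannii ATCC17978 grown in Iso-Sensitest broth across 10 compound concentrations at 35±2 °C.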

SMILES | IC90 [nM]
COc1ccc(-c2cnc3c(Nc4ccc(C(=O)N5CCC(C(=O)NCC6(O)CNC6)CC5)c(C)c4)nccn23)c(F)c1F [Example 285, 1-[4-[[3-(2,3-difluoro-4-methoxyphenyl)imidazo[1,2-a]pyrazin-8-yl]amino]-2-methylbenzoyl]-N-[(3-hydroxyazetidin-3-yl)methyl]piperidine-4-carboxamide] | 71
COc1ccc(-c2cnc3c(Nc4ccc(C(=O)N5CCC(C(=O)N6C[C@H](CO)[C@@H](O)[C@H](O)C6)CC5)c(C)c4)nccn23)c(F)c1F [Example 296, [4-[[3-(2,3-difluoro-4-methoxyphenyl)imidazo[1,2-a]pyrazin-8-yl]amino]-2-methylphenyl]-[4-[(3R,4R,5R)-3,4-dihydroxy-5-(hydroxymethyl)piperidine-1-carbonyl]piperidin-1-yl]methanone] | 180
COc1ccc(-c2cnc3c(Nc4ccc(C(=O)N5CCC(C(=O)NC[C@H](O)[C@@H](O)[C@H](O)[C@H](O)CO)CC5)c(C)c4)nccn23)c(F)c1F [Example 300, 1-[4-[[3-(2,3-difluoro-4-methoxyphenyl)imidazo[1,2-a]pyrazin-8-yl]amino]-2-methylbenzoyl]-N-[(2S,3R,4R,5R)-2,3,4,5,6-pentahydroxyhexyl]piperidine-4-carboxamide] | 210

Same assay, conditions: Acinetobacter baumannii, ATCC17978, 16 h, read-out: ATCC17978 IC90, 90% growth inhibitory concentration, Acinetobacter baumannii ATCC17978, Iso-Sensitest broth, OD 600 nm over 16 h

SMILES | IC90 [nM]
Cc1cc(Nc2nccn3c(-c4ccc(OC(F)F)cc4)cnc23)ccc1C(=O)N1CCN(C(=O)c2ccc(C(=O)O)cc2)CC1 [Example 280, 4-[4-[4-[[3-[4-(difluoromethoxy)phenyl]imi-dazo[1,2-a]pyrazin-8-yl]amino]-2-methylbenzoyl]piperazine-1-carbonyl]benzoic acid] | 4500
Cc1cc(Nc2nccn3c(-c4ccc(OC(F)F)cc4)cnc23)ccc1C(=O)N1CCN(C(=O)CN(C)CC(=O)O)CC1 [Example 281, 2-[[2-[4-[4-[[3-[4-(difluoromethoxy)phenyl]imi-dazo[1,2-a]pyrazin-8-yl]amino]-2-methylbenzoyl]piperazin-1-yl]-2-oxoethyl]-methylamino]acetic acid] | 4700
COc1ccc(-c2cnc3c(Nc4ccc(C(=O)N5CCC(C(=O)NCC6(O)CCNC6)CC5)c(C)c4)nccn23)c(F)c1F (stereo not shown) [Example 286, 1-[4-[[3-(2,3-difluoro-4-methoxyphenyl)imidazo[1,2-a]pyrazin-8-yl]amino]-2-methylbenzoyl]-N-[(3-hydroxypyrrolidin-3-yl)methyl]piperidine-4-carboxamide; hydrochloride] | 73
COc1ccc(-c2cnc3c(Nc4ccc(C(=O)N5CCC(C(=O)NCC(O)CN)CC5)c(C)c4)nccn23)c(F)c1F (stereo not shown) [Example 291, N-(3-amino-2-hydroxypropyl)-1-[4-[[3-(2,3-difluoro-4-methoxyphenyl)imidazo[1,2-a]pyrazin-8-yl]amino]-2-methylbenzoyl]piperidine-4-carboxamide; hydrochloride] | 110
Cc1cc(Nc2nccn3c(-c4ccc(OC(F)F)cc4)cnc23)ccc1C(=O)N1CCC(C(=O)NC[C@H]2CNC(=O)O2)CC1 [Example 298, 1-[4-[[3-[4-(difluoromethoxy)phenyl]imi-dazo[1,2-a]pyrazin-8-yl]amino]-2-methylbenzoyl]-N-[[(5S)-2-oxo-1,3-oxazolidin-5-yl]methyl]piperidine-4-carboxamide] | 200
Cc1cc(Nc2nccn3c(-c4ccc(OC(F)F)cc4)cnc23)ccc1C(=O)N1CCC(C(=O)NCC(O)CN)CC1 (stereo not shown) [Example 299, N-(3-amino-2-hydroxypropyl)-1-[4-[[3-[4-(difluoromethoxy)phenyl]imi-dazo[1,2-a]pyrazin-8-yl]amino]-2-methylbenzoyl]piperidine-4-carboxamide; hydrochloride] | 200
Cc1cc(Nc2nccn3c(-c4ccc(OC(F)F)cc4)cnc23)ccc1C(=O)N1CCC(N(C)CCN(C)C)CC1 [Example 301, [4-[[3-[4-(difluoromethoxy)phenyl]imi-dazo[1,2-a]pyrazin-8-yl]amino]-2-methylphenyl]-[4-[2-(dimethylamino)ethyl-methylamino]piperidin-1-yl]methanone] | 720
